Test results reported in patent US12576097B2, “Anti-tumor effective component of Hedyotis diffusa, preparation method therefor and use thereof” (Guangdong New Ear Life Technology Co., Ltd., priority 2020, dated 2026).
Entries after “also recorded” stand apart in the source; their conditions may differ. Marks after values point to notes of the source that are not given here.

Assays:
[1] = test system: human liver cancer Hep-G2 cells; assay: Inhibition rate on human liver cancer Hep-G2 cells (CCK-8); assay type: cell-based; conditions: 24 h; for inhibition rate: 3 mg/mL drug solutions
Experimental: A cryopreservation tube containing liver cancer Hep-G2 cells was taken out from a liquid nitrogen tank, quickly placed in a water bath at 38-39° C., and continuously shaken to be fully thawed within 1 min. The cryopreservation tube was centrifuged at 800 r/min for 9 min, and sprayed with 75% alcohol on the outside thereof, and then put into a ultra-clean table. The resulting supernatant was sucked and discarded. 1 ml of DMEM complete medium was added, and a mixture of the cells and the DMEM complete medium was blown evenly, and then the cells were transferred to a 25 ml culture dish. 6-8 ml of DMEM complete medium was added, and a mixture of the cells and the DMEM complete medium was gently blown evenly, and put into a constant temperature incubator at 37° C. with 5% CO2.
The old medium in the item 2.1 was sucked out. 2 ml of PBS buffer solution was added, and the cells were washed by gently shaking the culture flask. The PBS buffer solution was sucked out to remove the loose, dead and senescent cells and their metabolic wastes, and the cells were washed for 2-3 times. 2 ml of trypsin was added, and the culture dish was gently shaken for 30 s. After the trypsin was sucked out, the culture dish was put into the incubator for full digestion for 3 min, and 2 ml of fresh DMEM complete culture was added. The cells were gently blown and dispersed into individual cells under a microscope, and then 6-8 ml of fresh DMEM complete medium was added and the cells were incubated in a constant temperature incubator.
2 mL trypsin was added into the cells cultured in the item 2.2 in the logarithmic growth phase and the cells were digested for 30 s. After the trypsin was sucked out, the culture dish was placed into the incubator for full digestion for 3 min, and 2 mL of fresh medium was added. The cells were gently blown to disperse the cells into individual cells under the microscope. 10 μL of cell suspension and 10 μL of 0.4% Trypan blue staining solution were mixed well to fully stain the cells. 10 μL of the stained cell suspension was added to a cell counting plate, and the number of cells was counted by a fully automatic cell counter. The cell suspension was diluted to 2×10^5 cells/mL with a DMEM complete medium. 100 μL of cell suspension was sucked with a multichannel pipette and seeded into a 96-well plate and incubated in a constant temperature incubator at 37° C. with 5% CO2 for 24 h.
30 mL of DMEM complete medium was accurately measured, 30 μL of DMSO was added, and uniform mixing was conducted to prepare 0.1% DMSO medium. […] The kaempferol solution and the methyl ester solution having the above concentrations were uniformly mixed to prepare drug solutions having the desired ratio based on the mass ratio of kaempferol to methyl ester being 1:1, 1:2, 1:3, 1:4, 1:5, 5:1, 4:1, 3:1 and 2:1, 400 μL of each drug solution. 1 mg/mL of 5-fluorouracil solution was diluted to a concentration of 800, 600, 400, 200, 100, 50, 25 μg/mL, respectively, 400 μL of each drug solution.
The old medium in the 96-well plate in the item 2.3 was sucked out, and 100 μL of PBS buffer solution was added to each well to remove the loose, dead and senescent cells and their metabolic wastes. After that, the PBS buffer solution was sucked out. 100 μL of the prepared drug solution was added to each well, 3 wells in parallel. A negative control was set up, in which an equal volume of DMEM complete medium containing 0.1 vol % DMSO was added to each well, 3 wells in parallel. A blank control was a DMEM complete medium containing 0.1 vol % DMSO free of cells, 3 wells in parallel. The cells were incubated for 24 h in a constant temperature incubator at 37° C. with 5% CO2.
The DMEM complete medium containing 0.1 vol % DMSO in the drug solutions and negative control in the 96-well plate in the item 2.5 were sucked out. […]

[2] = test system: Solid tumor cell line S180; assay: In-vivo anti-tumor experiment after S180 tumor inoculation in mice; parameters: species or system ICR mice; conditions: 9 days; for relative tumor weight mean ± SD: S180 tumor-bearing ICR mice; for inhibition rate: vs model group; for best dose for tumor inhibition: dose with the highest inhibition rate, gavage
Experimental: Solid tumor cell line S180 cryopreservation tube were taken out from a liquid nitrogen tank and quickly placed into water at 37° C. with occasional shaking. After cryopreserved cell mother liquor was thawed, the lid edge of the cryopreservation tube was wiped with an alcohol swab. The thawed cell liquor was injected intraperitoneally into the peritoneal cavities of ICR mice by a syringe. The mice were kept at room temperature of 25±5° C., humidity of 60±10%, natural light, and free to ingest food and water. After about one week, ascites in the peritoneal cavities of the ICR mice were sucked by a syringe and injected into the peritoneal cavities of new ICR mice at a dose of 0.5 ml per mouse for passage for standby application.
ICR class II mice, weighing about 18-22 g. Feeding conditions: room temperature of 25±5° C., humidity of 60±10%, natural light, free intake of water, and all mice were kept in the feeding environment for adaptive feeding for four days, fasted for 12 h before the experiment, free intake of water.
(§1) The experimental instruments were placed in a clean table and sterilized for about 30 min by turning on a UV lamp. The mice that were injected with ascites (about one week) were sacrificed by cervical dislocation, and abdomens of the mice were wiped with an alcohol swab. A 20 ml syringe was selected to suck the ascites (milky white is preferred) from the mice. The sucked ascites were placed in a sterile vial, and the vial was placed in a small box with ice. A certain amount of ascites was sucked onto a counting plate and placed under a microscope for counting, and the number of the cells was 10^7 as a base for tumor inoculation (1:2) and passage (1:5).
(§2) The adaptively fed ICR class II male mice were taken, and wiped with an alcohol swab on the armpit areas of the right forelimbs. The axillary cavities of the right forelimbs of the mice were inoculated with diluted mice ascite cell (10^7 cells) suspension at 0.2 ml per mouse. After tumor inoculation, the mice were fed and watered freely. One hour later, the drug was administered by gavage.
(§3) 168 ICR class II male mice with a weight of 18-22 g were used. The mice were kept under the conditions of the item 2.2 for adaptive feeding for four days before the experiment. After four days, the mice were weighed and their autonomy was measured. […] Each mouse was inoculated with S180 tumor according to the method in the item 2.3, and the drug was administered by gavage after inoculation.
(§4) A appropriate amount of test samples were weighed precisely, and prepared into test sample solutions having the desired concentrations by using a 5 vol % ethanol aqueous solution as a solvent, i.e.: the effective parts of 5 mg/kg, 10 mg/kg and 20 mg/kg correspond to the test sample solutions of the groups of the effective part 5, effective part 10, and effective part 20, respectively; E-6-O-(p-coumaroyl)scandoside methyl ester of 2.5 mg/kg, 5 mg/kg, 10 mg/kg, and 20 mg/kg correspond to the test sample solutions of the groups of methyl ester 2.5, methyl ester 5, methyl ester 10 and methyl ester 20, respectively; kaempferol-3-O-[2-O-(6-O-E-feruloyl)-β-D-glucopyranosyl]-β-D-galactopyranose of 2.5 mg/kg, 5 mg/kg, 10 mg/kg and 20 mg/kg correspond to the test sample solutions of the groups of kaempferol 2.5, kaempferol 5, kaempferol 10 and kaempferol 20, respectively. […] Each mouse was administered by gavage at a dose of 0.2 ml/10 g. During the administration period, the mice were fed at 3 g/mouse and ingested water and food freely. All mice were continuously administered for 9 days, and sacrificed by decapitation on day 10. Blood, tumor, liver, spleen, and thymus of mice were collected. The blood collected was placed in a low temperature environment and sent out for blood check. The weight of the tumor, liver, spleen, and thymus and the size of the tumor were recorded.

[3] = test system: Solid tumor cell line S180; assay: In-vivo anti-tumor experiment of E-6-O-(p-coumaroyl)scandoside methyl ester and its metabolite p-coumaric acid (S180 tumor); parameters: species or system ICR mice; conditions: 10 mg/kg by gavage, 9 days; for relative tumor weight mean ± SD: S180 tumor-bearing ICR mice; for inhibition rate: vs model group
Experimental: as §1, §2
30 ICR class II male mice with a weight of 18-22 g were used. The mice were adaptively fed for four days under the conditions of the item 2.2 before the experiment. After four days, the mice were weighed and their autonomy was measured. The ICR mice were randomly divided into three groups, namely: a model group, methyl ester 10, p-coumaric acid 10, 10 mice in each group. Each mouse was inoculated with S180 tumor according to the method of the item 2.3, and the drug was administered by gavage after inoculation.
The appropriate amount of test samples were weighed precisely and prepared into test sample solutions having the desired concentrations by using a 5 vol % ethanol aqueous solution as a solvent, i.e.: E-6-O-(p-coumaroyl)scandoside methyl ester of 10 mg/kg; p-coumaric acid of 10 mg/kg. […] The blank group was given a solvent, the positive drug control group was given the cyclophosphamide solution, and the other groups were given the corresponding drugs and doses. Each mouse was administered by gavage at a dose of 0.2 ml/10 g. The mice were fed at 3 g/mouse and ingested water and food freely during the administration period. All mice were continuously administered for 9 days and sacrificed by decapitation on day 10. Blood, tumor, liver, spleen and thymus of the mice were collected. The blood obtained was placed in a low-temperature environment and sent out for blood check. The weight of the tumor, liver, spleen and thymus and the size of the tumor were recorded.
(§5) The recorded results were expressed as mean plus or minus standard deviation (X±SD), and the data were analyzed by using statistical software SPSS 11.5 software.

[4] = Spleen and thymus weight and blood count of S180 tumor-bearing mice; assay type: in vivo, ICR mice; conditions: for relative spleen weight compared with model group: FIG. 5; for relative thymus weight compared with model group: FIG. 6; for number of leukocytes compared with model group: FIG. 7; for percentage of lymphocytes compared with model group: FIG. 8
Experimental: as §3, §4, §5

Row | Compound | relative tumor weight mean ± SD ([2]; 2.5 mg/kg by gavage) | inhibition rate ([2]; 2.5 mg/kg by gavage) [%] | relative tumor weight mean ± SD ([2]; 5 mg/kg by gavage) | inhibition rate ([2]; 5 mg/kg by gavage) [%] | relative tumor weight mean ± SD ([2]; 10 mg/kg by gavage) | inhibition rate ([2]; 10 mg/kg by gavage) [%] | relative tumor weight mean ± SD ([2]; 20 mg/kg by gavage) | inhibition rate ([2]; 20 mg/kg by gavage) [%] | best dose for tumor inhibition [2] [mg/kg] | relative tumor weight mean ± SD [3] | inhibition rate [3] [%] | relative spleen weight compared with model group ([4]; 5 mg/kg) | relative thymus weight compared with model group ([4]; 5 mg/kg) | number of leukocytes compared with model group ([4]; 5 mg/kg) | percentage of lymphocytes compared with model group ([4]; 5 mg/kg) | inhibition rate ([1]; 1st measurement) [%] | inhibition rate ([1]; 2nd measurement) [%] | inhibition rate ([1]; 3rd measurement) [%] | further results
1 | O=c1[nH]cc(F)c(=O)[nH]1 [5-Fluorouracil, 5-fluorouracil] |  |  |  |  |  |  |  |  |  |  |  |  |  |  |  |  |  |  | inhibition at 25 µg/mL ([1]; Homo sapiens, HepG2, 25 μg/mL): 7.34%; inhibition at 50 µg/mL ([1]; Homo sapiens, HepG2, 50 μg/mL): 11.3%; inhibition at 100 µg/mL ([1]; Homo sapiens, HepG2, 100 μg/mL): 13.9%; inhibition at 200 µg/mL ([1]; Homo sapiens, HepG2, 200 μg/mL): 17.8%; inhibition at 400 µg/mL ([1]; Homo sapiens, HepG2, 400 μg/mL): 39.5%; inhibition at 600 µg/mL ([1]; Homo sapiens, HepG2, 600 μg/mL): 56.1%; inhibition at 800 µg/mL ([1]; Homo sapiens, HepG2, 800 μg/mL): 61.5%; inhibition at 1000 µg/mL ([1]; Homo sapiens, HepG2, 1000 μg/mL): 68%
2 | COC(=O)C1=COC(O[C@@H]2O[C@H](CO)[C@@H](O)[C@H](O)[C@H]2O)C2C(CO)=CC(OC(=O)/C=C/c3ccc(O)cc3)C12 (stereo partly drawn) [Methyl ester, E-6-O-(p-coumaroyl)scandoside methyl ester] | 6.49 ± 1.56* 10^−2 | 21.92 | 4.24 ± 2.24* 10^−2 | 48.97 | 5.81 ± 2.19* 10^−2 | 30.17 | 5.98 ± 1.19* 10^−2 | 28.06 | 5 | 4.65 ± 3.29* 10^−2 | 36.59 | increase | increase | significant increase; also recorded: highest | increased most significantly | 7.558 | 5.565 | 7.273 | inhibition rate ([2]; 5 mg/kg by gavage, listed as E-6-O-(p-coumaroyl)scandoside methyl ester): 48.97%; number of erythrocytes compared among groups ([4]; 5 mg/kg): highest
3 | O=P1(N(CCCl)CCCl)NCCCO1 (stereo not drawn) [Positive control, Cyclophosphamide, reference compound] |  |  |  |  |  |  | 3.56 ± 0.77* 10^−2 | 57.19 |  |  |  |  |  |  |  |  |  |  | number of erythrocytes compared with model group ([4]; 20 mg/kg): lower; relative spleen weight compared with model group ([4]; 20 mg/kg): decrease; also recorded: lower; relative thymus weight compared with model group ([4]; 20 mg/kg): increase; number of leukocytes compared with model group ([4]; 20 mg/kg): significant decrease; also recorded: lower; percentage of lymphocytes compared with model group ([4]; 20 mg/kg): increase
4 | O=C(O)/C=C/c1ccc(O)cc1 [p-coumaric acid, reference compound] |  |  |  |  |  |  |  |  |  | 6.07 ± 2.91* 10^−2 | 17.20 |  |  |  |  |  |  |  | 
5 | kaempferol-3-O-[2-O-(6-O-E-feruloyl)-β-D-glucopyranosyl]-β-D-galactopyranose | 7.01 ± 1.56 10^−2 | 15.76 | 4.49 ± 1.95 10^−2 | 45.96 | 6.04 ± 2.78 10^−2 | 27.36 | 5.59 ± 1.96 10^−2 | 32.75 | 5 |  |  | increase | increase | significant decrease | increase | 18.7 | 12.07 | 19.28 | inhibition rate ([2]; 5 mg/kg by gavage, listed as kaempferol-3-O-[2-O-(6-O-E-feruloyl)-β-D-glucopyranosyl]-β-D-galactopyranose): 45.96%
